Assay results published in patent publication US6509001B1, “Calcitonin receptor binding reagents” (Diatide, Inc., priority 1997, dated 2003).
Read-outs that look alike come from different tables or passages of the source. Values belong to the compound of their own block, whether it stands above or below them. Starred links: 1 amine or outer side, 2 acyl side, 3 side chain; linkers in the order of their positions; H or OH if unused. Positions of bridges follow the written chain, without caps; N, C: chain ends. Non-standard residues stand in square brackets, D forms with d. Residues, ends and D or L forms follow the SMILES beside them. *: point of attachment. X2 = NCCCC[C@H](NC(=O)[C@H](CS)NC(=O)[C@H](CCCCN)NC(=O)[C@@H](N)CNC(=O)C*)C(N)=O; X1 = NCCCC[C@H](NC(=O)[C@H](CS)NC(=O)CNC(=O)CNC(=O)C*)C(N)=O; hhCys(CH2CO) = O=C([C@H](CCCSCC(=O)[*:3])N[*:1])[*:2]; εLys = N[C@@H](CCCCN[*:1])C(=O)[*:2]; X3 = CC(C)(S)CNCCN(CCCCC*)CC(C)(C)S

Legend:
CT receptor [1] = target: T1, CT receptor (Homo sapiens, UniProt P30988); test: Displacement of 125I-CT from CT receptor in T-47D cell membranes; assay type: binding
T1 construct: Assays using microsomal membrane fractions of rat brain and T-47D cells; host or cells: T-47D
T1 sequence (P30988 25-474): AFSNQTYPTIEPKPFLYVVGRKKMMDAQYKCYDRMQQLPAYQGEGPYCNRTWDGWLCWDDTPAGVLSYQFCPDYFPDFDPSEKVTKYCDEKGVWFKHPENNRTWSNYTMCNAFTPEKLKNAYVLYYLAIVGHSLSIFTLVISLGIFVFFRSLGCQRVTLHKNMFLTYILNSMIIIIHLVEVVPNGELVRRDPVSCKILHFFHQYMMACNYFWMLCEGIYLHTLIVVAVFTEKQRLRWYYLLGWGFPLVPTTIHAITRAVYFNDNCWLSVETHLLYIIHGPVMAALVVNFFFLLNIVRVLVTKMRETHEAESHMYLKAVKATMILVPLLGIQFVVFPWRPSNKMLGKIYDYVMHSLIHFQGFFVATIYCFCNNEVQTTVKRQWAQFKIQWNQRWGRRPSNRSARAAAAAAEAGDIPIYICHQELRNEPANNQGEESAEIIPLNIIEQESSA
Procedure: (§1) Peptide reagents within the scope of the invention, or ReO complexed embodiments thereof, were tested using in vitro assays that measure their ability to inhibit the specific binding of ^125I-CT to the CT receptor, using membranes from rat brain or from a breast tumor cell line, and on whole cells from breast tumor cell lines, as described in detail below.
(§2) Assays using microsomal membrane fractions of rat brain and T-47D cells (obtained from the American Type Culture collection, Rockville, Md., ATCC Accession No. HTB-133) were used to identify analogs with high affinity for the CT receptor according to the method of Fisher et al. (1977, British J. Cancer 35: 777-784). Briefly, tissue was minced and homogenized. The membranes were washed several times, assayed for protein content and used in the binding assay. Membrane protein was incubated with 0.1 μCi of ^125I-salmon CT (Amersham, Cleveland, Ohio) in he presence or absence of varying concentrations of reagents to be tested. Both uncomplexed and ReO complexed reagents were tested. One hundred percent specific binding of ^125I-CT to the CT receptor was defined as the difference between total ^125I-CT binding and nonspecific binding of ^125I-CT measured in the presence of a receptor-saturating concentration (1 μM) of excess unlabeled salmon CT (Sigma, St. Louis, Mo.).

CT receptor [2] = test: Displacement of 125I-CT from CT receptor in rat brain membranes; assay type: binding; conditions: displacement of 125I-CT (Table III)
Procedure: as §1, §2

[3] = Biodistribution of 99mTc-CT peptide, T-47D tumor in nude mouse; assay type: in vivo; conditions: 0.025 mCi, total radioactivity, 99mTc-labeled peptide; for tissue uptake dose at […]: 90 minutes
Source text: (§3) Breast cancer cell lines were screened for receptor expression and the best cell lines chosen for xenograft implantation in immune deficient mice. These tumor models were used to evaluate the tumor targeting potential in vivo of the high affinity peptides identified in the in vitro assays above.
(§4) CT receptor expressing breast cancer cells (T47D and MCF-7) were implanted into immune deficient mice or Sprague-Dawley rats and allowed to grow tumors. For testing new ^99mTc-CT peptides, tumor-bearing mice or rats were injected with approximately 0.025 mCi at approximately 6 mCi/10 nmol peptide. The animals were cervically dislocated and imaged statically for 5 minutes using a gamma camera. The biodistribution of the ^99mTc-CT peptide was then determined by counting blood, tumor, target organs and muscle in a gamma counter along with standard aliquots of the injected dose. The time points for biodistribution were chosen to represent early, middle and late phases of ^99mTc-CT analog clearance. […] To assess the tumor imaging potential of selected analogs, the ratio of radioactivity in blood and various tissues were compared to that in tumor.

T-47D tumor = test: as above; assay type: in vivo; conditions: 99mTc-labeled peptide, 90 minutes
Source text: as §3, §4

[4] = Biodistribution of 99mTc-CT peptide in rat; assay type: in vivo; conditions: 99mTc-labeled peptide; for tissue uptake dose at […] / tissue uptake at […]: 0.025 mCi; for tissue uptake dose at […]: 90 minutes; for tissue uptake at […]: 90 minutes post-injection
Procedure: as §4

[5] = T-47D membranes, displacement of 125I-CT (Table III)
[6] = T-47D membranes, displacement of 125I-CT (Table III), read-out: T-47D IC50

Ki (CT receptor [1]; [5]): 12 nM
IC50 (CT receptor [1]; [6]): 16 nM
IC50 (CT receptor [2]): 18 nM
tissue uptake at […] ([3]; 90 minutes post-injection): 1.6 %ID/g
tissue uptake dose at […] ([3]; GI tract, read-out: GI tract (% ID)): 5.4 %ID
tissue uptake dose at […] ([3]; kidneys, read-out: Kidneys (% ID)): 18 %ID
tissue uptake dose at […] ([3]; liver, read-out: Liver (% ID)): 5.5 %ID
tissue uptake dose at […] ([3]; lung, read-out: Lung (% ID)): 0.24 %ID
Tum:Bld (T-47D tumor): 3.3
Tum:Con (T-47D tumor): 10
Structure (SMILES): CC(C)C[C@H](NC(=O)[C@H](CCCCN)NC(=O)CNC(=O)[C@H](CC(C)C)NC(=O)[C@@H](NC(=O)[C@@H]1CCCSCC(=O)N[C@@H](CO)C(=O)N[C@@H](CC(N)=O)C(=O)N[C@@H](CC(C)C)C(=O)N[C@@H](CO)C(=O)N[C@@H]([C@@H](C)O)C(=O)N1)C(C)C)C(=O)N[C@@H](CO)C(=O)N[C@@H](CCC(N)=O)C(=O)N[C@@H](CCC(=O)O)C(=O)N[C@@H](CC(C)C)C(=O)N[C@@H](Cc1c[nH]cn1)C(=O)N[C@@H](CCCCN)C(=O)N[C@@H](CC(C)C)C(=O)N[C@@H](CCC(N)=O)C(=O)N[C@H](C(=O)N[C@@H](Cc1ccc(O)cc1)C(=O)N1CCC[C@H]1C(=O)N[C@@H](CCCNC(=N)N)C(=O)N[C@H](C(=O)N[C@@H](CC(N)=O)C(=O)N[C@H](C(=O)NCC(=O)N[C@@H](CO)C(=O)NCC(=O)N[C@H](C(=O)N1CCC[C@H]1C(=O)NCCCC[C@H](N)C(=O)NCC(=O)N[C@@H](CS)C(N)=O)[C@@H](C)O)[C@@H](C)O)[C@@H](C)O)[C@@H](C)O [Peptide 2] (SNLST[hhCys(CH2CO)]VLGKLSQELHKLQTYPRTNTGSGTP[εLys]GC-NH2; lactam N-6)

IC50 (CT receptor [1]; T-47D cell membranes (Table IV), read-out: IC50 (nM)x): 2.6 nM
PK (min) t½α [4]: 1.4 min
PK (min) t½β [4]: 19 min
tissue uptake dose at […] ([4]; Sprague-Dawley, GI tract, total radioactivity, read-out: GI tract (% ID)): 2 %ID
tissue uptake at […] ([4]; Sprague-Dawley, blood, total radioactivity): 0.027 %ID/g
tissue uptake dose at […] ([4]; Sprague-Dawley, kidneys, total radioactivity, read-out: Kidneys (% ID)): 35 %ID
tissue uptake dose at […] ([4]; Sprague-Dawley, liver, total radioactivity, read-out: Liver (% ID)): 4 %ID
tissue uptake dose at […] ([4]; Sprague-Dawley, lung, total radioactivity, read-out: Lung (% ID)): 0.53 %ID
Structure (SMILES): CC(C)C[C@H](NC(=O)[C@H](CCCCN)NC(=O)CNC(=O)[C@H](CC(C)C)NC(=O)[C@@H](NC(=O)[C@@H]1CCCSCC(=O)N[C@@H](CO)C(=O)N[C@@H](CC(N)=O)C(=O)N[C@@H](CC(C)C)C(=O)N[C@@H](CO)C(=O)N[C@@H]([C@@H](C)O)C(=O)N1)C(C)C)C(=O)N[C@@H](CO)C(=O)N[C@@H](CSCC(=O)NCC(=O)NCC(=O)N[C@@H](CS)C(=O)N[C@@H](CCCCN)C(N)=O)C(=O)N[C@@H](CCC(=O)O)C(=O)N[C@@H](CC(C)C)C(=O)N[C@@H](Cc1c[nH]cn1)C(=O)N[C@@H](CCCCN)C(=O)N[C@@H](CC(C)C)C(=O)N[C@@H](CCC(N)=O)C(=O)N[C@H](C(=O)N[C@@H](Cc1ccc(O)cc1)C(=O)N1CCC[C@H]1C(=O)N[C@@H](CCCNC(=N)N)C(=O)N[C@H](C(=O)N[C@@H](CC(N)=O)C(=O)N[C@H](C(=O)NCC(=O)N[C@@H](CO)C(=O)NCC(=O)N[C@H](C(=O)N1CCC[C@H]1C(N)=O)[C@@H](C)O)[C@@H](C)O)[C@@H](C)O)[C@@H](C)O [Peptide 4] (SNLST[hhCys(CH2CO)]VLGKLSC(X1)ELHKLQTYPRTNTGSGTP-NH2; lactam N-6)

PK (min) t½α [4]: 1.6 min
PK (min) t½β [4]: 17 min
tissue uptake at […] ([4]; in vivo, read-out: Blood (% ID/g)): 0.048 %ID/g
tissue uptake dose at […] ([4]; in vivo, read-out: GI tract (% ID)): 4.5 %ID
tissue uptake dose at […] ([4]; in vivo, read-out: Kidneys (% ID)): 31 %ID
tissue uptake dose at […] ([4]; in vivo, read-out: Liver (% ID)): 5.8 %ID
tissue uptake dose at […] ([4]; in vivo, read-out: Lung (% ID)): 0.56 %ID
Structure (SMILES): CC(C)C[C@H](NC(=O)[C@H](CCCCN)NC(=O)CNC(=O)[C@H](CC(C)C)NC(=O)[C@@H](NC(=O)[C@@H]1CCCSCC(=O)N[C@@H](CO)C(=O)N[C@@H](CC(N)=O)C(=O)N[C@@H](CC(C)C)C(=O)N[C@@H](CO)C(=O)N[C@@H]([C@@H](C)O)C(=O)N1)C(C)C)C(=O)N[C@@H](CO)C(=O)N[C@@H](CSCC(=O)NC[C@H](N)C(=O)N[C@@H](CCCCN)C(=O)N[C@@H](CS)C(=O)N[C@@H](CCCCN)C(N)=O)C(=O)N[C@@H](CCC(=O)O)C(=O)N[C@@H](CC(C)C)C(=O)N[C@@H](Cc1c[nH]cn1)C(=O)N[C@@H](CCCCN)C(=O)N[C@@H](CC(C)C)C(=O)N[C@@H](CCC(N)=O)C(=O)N[C@H](C(=O)N[C@@H](Cc1ccc(O)cc1)C(=O)N1CCC[C@H]1C(=O)N[C@@H](CCCNC(=N)N)C(=O)N[C@H](C(=O)N[C@@H](CC(N)=O)C(=O)N[C@H](C(=O)NCC(=O)N[C@@H](CO)C(=O)NCC(=O)N[C@H](C(=O)N1CCC[C@H]1C(N)=O)[C@@H](C)O)[C@@H](C)O)[C@@H](C)O)[C@@H](C)O [Peptide 5] (SNLST[hhCys(CH2CO)]VLGKLSC(X2)ELHKLQTYPRTNTGSGTP-NH2; lactam N-6)

Ki (CT receptor [1]; [5]): 0.41 nM
IC50 (CT receptor [1]; [6]): 0.53 nM
IC50 (CT receptor [2]): 2.6 nM
Structure (SMILES): CC(C)C[C@H](NC(=O)[C@H](CCCCN)NC(=O)CNC(=O)[C@H](CC(C)C)NC(=O)[C@@H](NC(=O)[C@@H]1CCCSCC(=O)N[C@@H](CO)C(=O)N[C@@H](CC(N)=O)C(=O)N[C@@H](CC(C)C)C(=O)N[C@@H](CO)C(=O)N[C@@H]([C@@H](C)O)C(=O)N1)C(C)C)C(=O)N[C@@H](CO)C(=O)N[C@@H](CSCCCCCN(CCNCC(C)(C)S)CC(C)(C)S)C(=O)N[C@@H](CCC(=O)O)C(=O)N[C@@H](CC(C)C)C(=O)N[C@@H](Cc1c[nH]cn1)C(=O)N[C@@H](CCCCN)C(=O)N[C@@H](CC(C)C)C(=O)N[C@@H](CCC(N)=O)C(=O)N[C@H](C(=O)N[C@@H](Cc1ccc(O)cc1)C(=O)N1CCC[C@H]1C(=O)N[C@@H](CCCNC(=N)N)C(=O)N[C@H](C(=O)N[C@@H](CC(N)=O)C(=O)N[C@H](C(=O)NCC(=O)N[C@@H](CO)C(=O)NCC(=O)N[C@H](C(=O)N1CCC[C@H]1C(N)=O)[C@@H](C)O)[C@@H](C)O)[C@@H](C)O)[C@@H](C)O [Peptide 1] (SNLST[hhCys(CH2CO)]VLGKLSC(X3)ELHKLQTYPRTNTGSGTP-NH2; lactam N-6)
